# Test system: ring stage parasites
# Test: Parasite growth potency assay, 72 hours, LDH readout
# Assay type: cell-based
# Conditions: 72 h, parasite growth measured by LDH assay after 72 hours at 37° C.; 0.7% rings, 2% haematocrit; read-out: EC50
# Method: The parasite stock was maintained at 4% haematocrit in RPMI-Hepes media buffered with sodium bicarbonate and supplemented with 5% heat inactivated human serum and 0.5% albumax.
# On the day of assay set up, a blood smear of the parasite culture was Giemsa stained and counted. The parasitemia was adjusted to 0.7% rings and the haematocrit was diluted to 2% in RPMI-Hepes media buffered with sodium bicarbonate and supplemented with 5% heat inactivated human serum and 0.5% albumax. 30 ul of diluted parasites are then added into 10 ul of media+compound in pre-prepared Greiner TC assay plates. Parasite assay plates were placed in gassed humidified boxes in single layer and allowed to incubate at 37° C. for 72 hours. After 72 hours growth, assay plates are sealed with parafilm and frozen flat, in single file at −80° C. overnight. On the following day, assay plates are allowed to thaw at room temperature for 4 hours to which an LDH assay is performed to measure parasite growth.
row,Structure (SMILES),EC50 [nM]
1,"CCC[C@H](c1cccc(C(=O)NC2CC(C)(C)Oc3ccccc32)c1)N1C(=N)NC(CC)(CC)CC1=O (stereo in doubt) [Example 62A, [1-[1-[3-[(2,2-dimethylchroman-4-yl)carbamoyl]phenyl]butyl]-4,4-diethyl-6-oxo-hexahydropyrimidin-2-ylidene]ammonium; 2,2,2-trifluoroacetate]",0.4
2,"CCC[C@@H](c1cccc(C(=O)NC2CC(C)(C)Oc3ccccc32)c1)N1C(=N)NC(CC)(CC)CC1=O (stereo in doubt) [Example 62B, [1-[1-[3-[(2,2-dimethylchroman-4-yl)carbamoyl]phenyl]butyl]-4,4-diethyl-6-oxo-hexahydropyrimidin-2-ylidene]ammonium; 2,2,2-trifluoroacetate]",7.5
3,"CCC1(CC)CC(=O)N([C@@H](CCOC)c2cccc(C(=O)NC3CC(C)(C)Oc4ccccc43)c2)C(=N)N1 (stereo in doubt) [Example 72A, [1-[1-[3-[(2,2-dimethylchroman-4-yl)carbamoyl]phenyl]-3-methoxy-propyl]-4,4-diethyl-6-oxo-hexahydropyrimidin-2-ylidene]ammonium; 2,2,2-trifluoroacetate]",25.5
4,"CCC1(CC)CC(=O)N([C@H](CCOC)c2cccc(C(=O)NC3CC(C)(C)Oc4ccccc43)c2)C(=N)N1 (stereo in doubt) [Example 72B, [1-[1-[3-[(2,2-dimethylchroman-4-yl)carbamoyl]phenyl]-3-methoxy-propyl]-4,4-diethyl-6-oxo-hexahydropyrimidin-2-ylidene]ammonium; 2,2,2-trifluoroacetate]",0.3
5,"CC#CCC[C@H](c1cccc(C(=O)N[C@H]2CC(C)(C)Oc3ccccc32)c1)N1C(=N)NC(CC)(CC)CC1=O (stereo in doubt) [Example 83B, [1-[1-[3-[(2,2-dimethylchroman-4-yl)carbamoyl]phenyl]hex-4-ynyl]-4,4-diethyl-6-oxo-hexahydropyrimidin-2-ylidene]ammonium; 2,2,2-trifluoroacetate]",0.4
6,"CCC1(CC)CC(=O)N(Cc2cccc(C(=O)N[C@@H]3c4ccccc4OCC3F)c2)C(=N)N1 (stereo in doubt) [Example 87, [4,4-diethyl-1-[[3-[(3-fluorochroman-4-yl)carbamoyl]phenyl]methyl]-6-oxo-hexahydropyrimidin-2-ylidene]ammonium; 2,2,2-trifluoroacetate]",7.3
7,"CCC1(CC)CC(=O)N(Cc2cccc(C(=O)N[C@H]3CC(C)(C)Oc4ccc(F)cc43)c2)C(=N)N1 (stereo in doubt) [Example 88, [4,4-diethyl-1-[[3-[(6-fluoro-2,2-dimethyl-chroman-4-yl)carbamoyl]phenyl]methyl]-6-oxo-hexahydropyrimidin-2-ylidene]ammonium; 2,2,2-trifluoroacetate]",0.4
8,"CCC1(CC)CC(=O)N(Cc2cc(C#N)cc(C(=O)N[C@@H]3CC(C)(C)Oc4ccccc43)c2)C(=N)N1 (stereo in doubt) [Example 89A, [1-[[3-cyano-5-[(2,2-dimethylchroman-4-yl)carbamoyl]phenyl]methyl]-4,4-diethyl-6-oxo-hexahydropyrimidin-2-ylidene]ammonium; 2,2,2-trifluoroacetate]",9.8
9,"CCC1(CC)CC(=O)N(Cc2cc(C#N)cc(C(=O)N[C@H]3CC(C)(C)Oc4ccccc43)c2)C(=N)N1 (stereo in doubt) [Example 89B, [1-[[3-cyano-5-[(2,2-dimethylchroman-4-yl)carbamoyl]phenyl]methyl]-4,4-diethyl-6-oxo-hexahydropyrimidin-2-ylidene]ammonium; 2,2,2-trifluoroacetate]",1.6

# Same assay, conditions: parasite growth measured by LDH assay after 72 hours at 37° C.; 0.7% rings, 2% haematocrit; read-out: EC50
row,Structure (SMILES),EC50 [nM]
1,"CC[C@]1(C)CC(=O)N(C(CCOC(F)F)c2cccc(C(=O)NC3c4ccccc4OC(C)(C)C3(C)O)c2)C(=N)N1 (single isomer, unassigned) [Example 240A]",91.6
2,"CC[C@]1(C)CC(=O)N(C(CCOC(F)F)c2cccc(C(=O)NC3c4ccccc4OC(C)(C)C3(C)O)c2)C(=N)N1 (single isomer, unassigned) [Example 240B]",0.25

# Reference: patent US12629374B2, “Antimalarial agents” (Merck Sharp & Dohme LLC, priority 2020, dated 2026)
